Measurements: ChEMBL document CHEMBL3885881, “DrugMatrix”

Species: Rattus norvegicus
Assay: DrugMatrix - Regimen: Daily Repeat
Format: toxicity, organism-based, Sprague-Dawley
Parameters: regimen Daily Repeat, gender Male, age 6-8 weeks
Conditions: in vivo, po, route oral GAVAGE, vehicle .5 % CMC; for ABSOLUTE BASOPHIL / ABSOLUTE EOSINOPHIL / ABSOLUTE LYMPHOCYTE / ABSOLUTE MONOCYTE / ABSOLUTE SEGMENTED NEUTROPHIL / BASOPHIL / EOSINOPHIL / ERYTHROCYTE COUNT / HEMATOCRIT / HEMOGLOBIN / LEUKOCYTE COUNT / LYMPHOCYTE / MEAN CORPUSCULAR HEMOGLOBIN / MEAN CORPUSCULAR HEMOGLOBIN CONCENTRATION / MEAN CORPUSCULAR VOLUME / MONOCYTE / NEUTROPHIL / NUCLEATED RED BLOOD CELLS / PLATELET COUNT: tissue Blood; for ALANINE AMINOTRANSFERASE / ALBUMIN / ALKALINE PHOSPHATASE / ASPARTATE AMINOTRANSFERASE / BLOOD UREA NITROGEN / CARBON DIOXIDE / CHLORIDE / CHOLESTEROL / CREATINE PHOSPHOKINASE / CREATININE / GLUCOSE / LACTATE DEHYDROGENASE / LIPASE / PHOSPHORUS / POTASSIUM / SODIUM / TOTAL BILIRUBIN / TOTAL PROTEIN / URIC ACID: tissue Plasma
[1] = 100 mg/kg, 120 h, dose level Low, time 5 day
[2] = 1503 mg/kg, 72 h, dose level High, time 3 day
[3] = 1503 mg/kg, 120 h, dose level High, time 5 day

Cl.NC[C@H]1CC[C@H](C(=O)Oc2ccc(CCC(=O)O)cc2)CC1 [CETRAXATE HYDROCHLORIDE]
ABSOLUTE BASOPHIL [1]: 0 CELLS/uL
ABSOLUTE EOSINOPHIL [1]: 157.33 CELLS/uL
ABSOLUTE LYMPHOCYTE [1]: 16804.67 CELLS/uL
ABSOLUTE MONOCYTE [1]: 401.67 CELLS/uL
ABSOLUTE SEGMENTED NEUTROPHIL [1]: 1803 CELLS/uL
BASOPHIL [1]: 0%
EOSINOPHIL [1]: 0.67%
ERYTHROCYTE COUNT [1]: 5.83 x10E6/uL
HEMATOCRIT [1]: 37.17%
HEMOGLOBIN [1]: 13.9 G/DL
LEUKOCYTE COUNT [1]: 19.17 x10E3/uL
LYMPHOCYTE [1]: 88.33%
MEAN CORPUSCULAR HEMOGLOBIN [1]: 23.87 pg
MEAN CORPUSCULAR HEMOGLOBIN CONCENTRATION [1]: 37.4 G/DL
MEAN CORPUSCULAR VOLUME [1]: 63.73 fL
MONOCYTE [1]: 2%
NEUTROPHIL [1]: 9%
NUCLEATED RED BLOOD CELLS [1]: 0 /100WBC
PLATELET COUNT [1]: 1287.67 x10E3/uL
ALANINE AMINOTRANSFERASE [1]: 53.67 u/L
ALBUMIN [1]: 4.23 G/DL
ALKALINE PHOSPHATASE [1]: 376.33 u/L
ASPARTATE AMINOTRANSFERASE [1]: 93.67 u/L
BLOOD UREA NITROGEN [1]: 19.33 mg/dL
CARBON DIOXIDE [1]: 27 mmol/L
CHLORIDE [1]: 104.67 MEQ/L
CHOLESTEROL [1]: 78.67 mg/dL
CREATINE PHOSPHOKINASE [1]: 449.67 u/L
CREATININE [1]: 0.23 mg/dL
GLUCOSE [1]: 160.33 mg/dL
LACTATE DEHYDROGENASE [1]: 370.33 u/L
LIPASE [1]: 9.67 u/L
PHOSPHORUS [1]: 13.2 mg/dL
POTASSIUM [1]: 6.82 MEQ/L
SODIUM [1]: 143.93 MEQ/L
TOTAL BILIRUBIN [1]: 0.17 mg/dL
TOTAL PROTEIN [1]: 5.97 G/DL
URIC ACID [1]: 2.07 mg/dL
ABSOLUTE BASOPHIL [2]: 0 CELLS/uL
ABSOLUTE EOSINOPHIL [2]: 121 CELLS/uL
ABSOLUTE LYMPHOCYTE [2]: 13133.33 CELLS/uL
ABSOLUTE MONOCYTE [2]: 333 CELLS/uL
ABSOLUTE SEGMENTED NEUTROPHIL [2]: 979.33 CELLS/uL
BASOPHIL [2]: 0%
EOSINOPHIL [2]: 1%
ERYTHROCYTE COUNT [2]: 5.73 x10E6/uL
HEMATOCRIT [2]: 36.13%
HEMOGLOBIN [2]: 13.17 G/DL
LEUKOCYTE COUNT [2]: 14.57 x10E3/uL
LYMPHOCYTE [2]: 90%
MEAN CORPUSCULAR HEMOGLOBIN [2]: 23.03 pg
MEAN CORPUSCULAR HEMOGLOBIN CONCENTRATION [2]: 36.43 G/DL
MEAN CORPUSCULAR VOLUME [2]: 63.13 fL
MONOCYTE [2]: 2.33%
NEUTROPHIL [2]: 6.67%
NUCLEATED RED BLOOD CELLS [2]: 0.33 /100WBC
PLATELET COUNT [2]: 1198.67 x10E3/uL
ALANINE AMINOTRANSFERASE [2]: 68 u/L
ALBUMIN [2]: 4.1 G/DL
ALKALINE PHOSPHATASE [2]: 375.67 u/L
ASPARTATE AMINOTRANSFERASE [2]: 167.67 u/L
BLOOD UREA NITROGEN [2]: 17.67 mg/dL
CARBON DIOXIDE [2]: 25 mmol/L
CHLORIDE [2]: 101.33 MEQ/L
CHOLESTEROL [2]: 63.67 mg/dL
CREATINE PHOSPHOKINASE [2]: 4593 u/L
CREATININE [2]: 0.28 mg/dL
GLUCOSE [2]: 200 mg/dL
LACTATE DEHYDROGENASE [2]: 387 u/L
LIPASE [2]: 10.33 u/L
PHOSPHORUS [2]: 12.87 mg/dL
POTASSIUM [2]: 6.87 MEQ/L
SODIUM [2]: 143.37 MEQ/L
TOTAL BILIRUBIN [2]: 0.3 mg/dL
TOTAL PROTEIN [2]: 5.53 G/DL
URIC ACID [2]: 2.37 mg/dL
ABSOLUTE BASOPHIL [3]: 0 CELLS/uL
ABSOLUTE EOSINOPHIL [3]: 225.33 CELLS/uL
ABSOLUTE LYMPHOCYTE [3]: 13517.67 CELLS/uL
ABSOLUTE MONOCYTE [3]: 404.33 CELLS/uL
ABSOLUTE SEGMENTED NEUTROPHIL [3]: 1186 CELLS/uL
BASOPHIL [3]: 0%
EOSINOPHIL [3]: 1.33%
ERYTHROCYTE COUNT [3]: 6.38 x10E6/uL
HEMATOCRIT [3]: 39.27%
HEMOGLOBIN [3]: 14.57 G/DL
LEUKOCYTE COUNT [3]: 15.33 x10E3/uL
LYMPHOCYTE [3]: 88.33%
MEAN CORPUSCULAR HEMOGLOBIN [3]: 22.83 pg
MEAN CORPUSCULAR HEMOGLOBIN CONCENTRATION [3]: 37.13 G/DL
MEAN CORPUSCULAR VOLUME [3]: 61.57 fL
MONOCYTE [3]: 2.67%
NEUTROPHIL [3]: 7.67%
NUCLEATED RED BLOOD CELLS [3]: 0 /100WBC
PLATELET COUNT [3]: 1170.67 x10E3/uL
ALANINE AMINOTRANSFERASE [3]: 59 u/L
ALBUMIN [3]: 4.47 G/DL
ALKALINE PHOSPHATASE [3]: 424.33 u/L
ASPARTATE AMINOTRANSFERASE [3]: 93.33 u/L
BLOOD UREA NITROGEN [3]: 17 mg/dL
CARBON DIOXIDE [3]: 26.67 mmol/L
CHLORIDE [3]: 105.67 MEQ/L
CHOLESTEROL [3]: 58 mg/dL
CREATINE PHOSPHOKINASE [3]: 497 u/L
CREATININE [3]: 0.24 mg/dL
GLUCOSE [3]: 175.33 mg/dL
LACTATE DEHYDROGENASE [3]: 205.33 u/L
LIPASE [3]: 9 u/L
PHOSPHORUS [3]: 12.87 mg/dL
POTASSIUM [3]: 6.66 MEQ/L
SODIUM [3]: 144.8 MEQ/L
TOTAL BILIRUBIN [3]: 0.2 mg/dL
TOTAL PROTEIN [3]: 6.27 G/DL
URIC ACID [3]: 1.93 mg/dL
